According to patent EP0672419A1, “BLOOD PRESSURE REGULATOR” (Asahi Kasei Kogyo Kabushiki Kaisha, priority 1991, dated 1995):

Experiments:
adult mongrel dogs [1] = assay: Induced hypotension in ten halothane-anesthetized dogs, average arterial blood pressure kept at 60 mmHg for 60 min (Example 6); assay type: in vivo, dog; details: mean ± S.D.
Protocol: Adult mongrel dog, mean body weight 12.7 ± 3.1 kg, was anesthesized with pentobarbital 25 mg/kg, intratarcheally cannulated and maintained anesthetic condition by 0.87% halothane-oxygen (1 MAC, minimum anesthetic concentration). Respiration was controlled, by using respirator (Harvard Corp., Model 613E ) at Paco₂ 35±5 mmHg.
Catheters were introduced to right femoral vein and artery for monitering arterial blood pressure, arterial blood gas analysis and infusion, and left cardiac catheter was introduced to left femoral […] to monitor left ventricular pressure. The changes in left ventricular pressure were differentiated continuously using a pressure processor (Nihon Koden Co., EQ-601G) to measure a maximum left ventricular systolic ratio (LV dp/dt max). The active ingredient of the present invention was administered to left femoral vein. Pulmonary arterial catheter (7F, Swan-Ganz® catheter) was introduced through right external jugular vein to monitor pulmonary artery pressure (PAP), paulmonary arterial wedge pressure (pulmonary capillary wedge pressure, PCWP) and cardiac output (CO). Pressure was monitored by using disporsable pressure monitoring kit (Gould Corp.), and electrocardiogram, arteriala pressure, left ventricle pressure (LVP) and maximum left ventricular systolic ratio (LV dp/dt max) were monitored by polygraph (Nihon Koden Co.) . Cardiac output (CO) was measured by thermal dilution method using cardiac output monitor (Nihon Koden Co Model MTC6210). Blood gas analysis was made by using automatic blood gas analyser (Radiometer Corp. ABL3). Mean artery pressure (MAP), cardiac index(CI) stroke volume index (SI), systemic vascular resistance (SVR), pulmonary vascular resistance (PVR), left ventricle stroke work index (LVSWI) and coronary perfusion pressure (CPP) were calculated by standard calculation equations, respectively.
To maintain low blood pressure, the active ingredient was intraveneously administered for 60 minutes with maintaining maximum dose at 40 µg/kg and adjusting to maintain mean arteraial pressure at 50 mmHg. Physiological saline was used for maintenance infusion and administered in combination with the active ingredient at 7 ml/kg/hr. At blood sampling two fold volume of hydroxyethylstarch (6-HES) was supplementary administered. Body temperature was maintained at 37 ± 1°C by covering with blanket.
Example 5 was repeated by substantially almost same manner using ten adult mongrel dogs, mean body weight 14.7±2.1 kg, applying same anesthetic condition with maintaining artificially hypotensive with average arterial blood pressure at 60 mmHg for 60 min., and administering the active ingredient desalanyl-deamino-c-CGRP.
A value at time more than 60 minutes passed after completing the start of the experiment and stabilizing a depth of anesthesia and blood flow, was set as control (S₁). Monitorings were performed at 30 min. and 60 min. under reduced blood pressure in induced hypotension, and at 10 min. and 30 min. after terminating the reduced blood pressure in induced hypotension (after stopping administration), for totally five points of time.
Results are shown by mean ± S.D.
Amount of the active ingredient for maintaining average arterial blood pressure at 60 mmHg for 60 minutes was 5 µg-115 µg/kg.

adult mongrel dogs [2] = assay: Phenylephrine-induced hypertension in four anesthetized dogs (Example 8); assay type: in vivo, dog; details: 10 µg/kg/hr on top of phenylephrine 10 µg/kg/min
Protocol: Example 6 was repeated by substantially almost same manner using four adult mongrel dogs, mean body weight 12.3±3.0 kg, applying same anesthetic condition. After setting up the experiment at more than 60 minutes passing and confirming to stabilize the depth of anesthesia and blood flow, phenylephrine (hypertensor) 10 µg/kg/min was administered.
Further after 10 minutes passed, the active ingredient, desalanyl-deamino-c-CGRP 10 µg/kg/hr was administered and at 10 min. and 20 min. after administration of the active ingredient, heart rate (HR) and mean a artery pressure (MAP) were measured.

[3] = after terminating reduced blood pressure 10 min.
[4] = after terminating reduced blood pressure 30 min.
[5] = reduced blood pressure 30 min., MAP kept at 60 mmHg
[6] = reduced blood pressure 60 min., MAP kept at 60 mmHg
[7] = after administ. of CGRP 10 min(20min)
[8] = after administ. of CGRP 20 min(30min)

desalanyl-deamino-c-CGRP
CI: Cardiac index (adult mongrel dogs [1]; [3]): 4.025±0.685 ** 1/min/m²
CO: Cardiac output (adult mongrel dogs [1]; [3]): 2.751±0.438 * 1/min
CPP: Coronary perfusion pressure (adult mongrel dogs [1]; [3]): 50.5±5.5 mmHg
CVP: Central venous pressure (adult mongrel dogs [1]; [3]): 2.9±1.5 mmHg
DAP: Diastolic artery pressure (adult mongrel dogs [1]; [3]): 59.2±5.1 mmHg
DPAP: Diastolic pulmonary artery pressure (adult mongrel dogs [1]; [3]): 11.3±5.2 mmHg
EtCO₂: Expiration terminal CO₂ pressure (adult mongrel dogs [1]; [3]): 39.5±5.8 mmHg
HR: Heart rate (adult mongrel dogs [1]; [3]): 158.8±33.8 beat/min
LV dp/dt max: maximum left ventricular systolic ratio (adult mongrel dogs [1]; [3]): 3370.0±783.2 mmHg/sec
LVEP: Left ventricle end pressure (adult mongrel dogs [1]; [3]): 0.1±0.3 mmHg
LVP: Left ventricle pressure (adult mongrel dogs [1]; [3]): 119.5±16.3 mmHg
LVSWI: Left ventricle stroke work index (adult mongrel dogs [1]; [3]): 23.970±6.998 g.m/beat/m²
MAP: Mean artery pressure (adult mongrel dogs [1]; [3]): 75.7±4.3 mmHg
MPAP: Mean pulmonary artery pressure (adult mongrel dogs [1]; [3]): 18.3±6.0 mmHg
PCWP: Pulmonary capillary wedge pressure (adult mongrel dogs [1]; [3]): 9.2±4.1 mmHg
PVR: Pulmonary vascular resistance (adult mongrel dogs [1]; [3]): 273.30±100.09 dynes · sec/cm⁵
RPP: Rate pressure products (adult mongrel dogs [1]; [3]): 14920.0±3480.0 mmHg.beat/min
RVSWI: Right ventricle stroke work index (adult mongrel dogs [1]; [3]): 5.209±1.501 g.m/beat/m²
SAP: Systolic artery pressure (adult mongrel dogs [1]; [3]): 94.4±7.2 mmHg
SI: Stroke index (adult mongrel dogs [1]; [3]): 26.300±6.720 ml/HR/m²
SPAP: Systolic pulmonary artery pressure (adult mongrel dogs [1]; [3]): 26.8±7.2 mmHg
SV: Stroke volumes (adult mongrel dogs [1]; [3]): 18.2 ± 5.63 mL/beat
SVR: Systemic vascular resistance (adult mongrel dogs [1]; [3]): 2162.0±419.2 dynes · sec/cm⁵
CI: Cardiac index (adult mongrel dogs [1]; [4]): 3.638±0.587 1/min/m²
CO: Cardiac output (adult mongrel dogs [1]; [4]): 2.487 ± 0.378 min⁻¹
CPP: Coronary perfusion pressure (adult mongrel dogs [1]; [4]): 63.5±5.3 mmHg
CVP: Central venous pressure (adult mongrel dogs [1]; [4]): 3.2±1.1 mmHg
DAP: Diastolic artery pressure (adult mongrel dogs [1]; [4]): 74.1±4.7 mmHg
DPAP: Diastolic pulmonary artery pressure (adult mongrel dogs [1]; [4]): 11.3±5.4 mmHg
EtCO₂: Expiration terminal CO₂ pressure (adult mongrel dogs [1]; [4]): 39.3±5.9 mmHg
HR: Heart rate (adult mongrel dogs [1]; [4]): 151.6±27.9 beat/min
LV dp/dt max: maximum left ventricular systolic ratio (adult mongrel dogs [1]; [4]): 3220.0±708.4 mmHg/sec
LVEP: Left ventricle end pressure (adult mongrel dogs [1]; [4]): 0.0±0.0 mmHg
LVP: Left ventricle pressure (adult mongrel dogs [1]; [4]): 132.3±20.0 mmHg
LVSWI: Left ventricle stroke work index (adult mongrel dogs [1]; [4]): 27.680±7.370 g.m/beat/m²
MAP: Mean artery pressure (adult mongrel dogs [1]; [4]): 92.8±6.3 mmHg
MPAP: Mean pulmonary artery pressure (adult mongrel dogs [1]; [4]): 18.7±6.3 mmHg
PCWP: Pulmonary capillary wedge pressure (adult mongrel dogs [1]; [4]): 10.6±4.5 mmHg
PVR: Pulmonary vascular resistance (adult mongrel dogs [1]; [4]): 269.10±109.58 dynes · sec/cm⁵
RPP: Rate pressure products (adult mongrel dogs [1]; [4]): 18100.0±3938.4 mmHg.beat/min
RVSWI: Right ventricle stroke work index (adult mongrel dogs [1]; [4]): 4.882±1.138 g.m/beat/m²
SAP: Systolic artery pressure (adult mongrel dogs [1]; [4]): 119.4±10.1 mmHg
SI: Stroke index (adult mongrel dogs [1]; [4]): 24.760±6.720 ml/HR/m²
SPAP: Systolic pulmonary artery pressure (adult mongrel dogs [1]; [4]): 27.4±7.2 mmHg
SV: Stroke volumes (adult mongrel dogs [1]; [4]): 17 ± 5.07 mL/beat
SVR: Systemic vascular resistance (adult mongrel dogs [1]; [4]): 2961.0±700.9 dynes · sec/cm⁵
CI: Cardiac index (adult mongrel dogs [1]; [5]): 3.418±0.692 1/min/m²
CO: Cardiac output (adult mongrel dogs [1]; [5]): 2.348 ± 0.528 min⁻¹
CPP: Coronary perfusion pressure (adult mongrel dogs [1]; [5]): 38.3±4.5 mmHg
CVP: Central venous pressure (adult mongrel dogs [1]; [5]): 2.5±1.1 mmHg
DAP: Diastolic artery pressure (adult mongrel dogs [1]; [5]): 47.3±2.8 mmHg
DPAP: Diastolic pulmonary artery pressure (adult mongrel dogs [1]; [5]): 9.9±4.0 mmHg
EtCO₂: Expiration terminal CO₂ pressure (adult mongrel dogs [1]; [5]): 38.5±5.6 mmHg
HR: Heart rate (adult mongrel dogs [1]; [5]): 149.3±31.7 beat/min
LV dp/dt max: maximum left ventricular systolic ratio (adult mongrel dogs [1]; [5]): 3070.0±771.8 mmHg/sec
LVEP: Left ventricle end pressure (adult mongrel dogs [1]; [5]): 0.0±0.0 mmHg
LVP: Left ventricle pressure (adult mongrel dogs [1]; [5]): 102.7±14.1 mmHg
LVSWI: Left ventricle stroke work index (adult mongrel dogs [1]; [5]): 16.906±5.750 g.m/beat/m²
MAP: Mean artery pressure (adult mongrel dogs [1]; [5]): 60.4±0.7 mmHg
MPAP: Mean pulmonary artery pressure (adult mongrel dogs [1]; [5]): 15.6±5.3 mmHg
PCWP: Pulmonary capillary wedge pressure (adult mongrel dogs [1]; [5]): 9.0±4.0 mmHg
PVR: Pulmonary vascular resistance (adult mongrel dogs [1]; [5]): 231.10±80.62 dynes · sec/cm⁵
RPP: Rate pressure products (adult mongrel dogs [1]; [5]): 11357.0±2260.5 mmHg.beat/min
RVSWI: Right ventricle stroke work index (adult mongrel dogs [1]; [5]): 3.979±1.239 g.m/beat/m²
SAP: Systolic artery pressure (adult mongrel dogs [1]; [5]): 76.5±4.8 mmHg
SI: Stroke index (adult mongrel dogs [1]; [5]): 23.810±6.952 ml/HR/m²
SPAP: Systolic pulmonary artery pressure (adult mongrel dogs [1]; [5]): 23.0±6.2 mmHg
SV: Stroke volumes (adult mongrel dogs [1]; [5]): 16.5 ± 5.78 mL/beat
SVR: Systemic vascular resistance (adult mongrel dogs [1]; [5]): 2054.0±455.6 dynes · sec/cm⁵
CI: Cardiac index (adult mongrel dogs [1]; [6]): 4.006 ±0.771 ** 1/min/m²
CO: Cardiac output (adult mongrel dogs [1]; [6]): 2.739 ±0.518 * 1/min
CPP: Coronary perfusion pressure (adult mongrel dogs [1]; [6]): 38.3±4.9 mmHg
CVP: Central venous pressure (adult mongrel dogs [1]; [6]): 2.2±1.2 mmHg
DAP: Diastolic artery pressure (adult mongrel dogs [1]; [6]): 47.7±2.6 mmHg
DPAP: Diastolic pulmonary artery pressure (adult mongrel dogs [1]; [6]): 11.3±4.9 mmHg
EtCO₂: Expiration terminal CO₂ pressure (adult mongrel dogs [1]; [6]): 39.8±6.9 mmHg
HR: Heart rate (adult mongrel dogs [1]; [6]): 154.3 ± 33.8 beat/min
LV dp/dt max: maximum left ventricular systolic ratio (adult mongrel dogs [1]; [6]): 3210.0±749.0 mmHg/sec
LVEP: Left ventricle end pressure (adult mongrel dogs [1]; [6]): 0.0±0.0 mmHg
LVP: Left ventricle pressure (adult mongrel dogs [1]; [6]): 104.7±16.3 mmHg
LVSWI: Left ventricle stroke work index (adult mongrel dogs [1]; [6]): 18.949±6.280 g.m/beat/m²
MAP: Mean artery pressure (adult mongrel dogs [1]; [6]): 60.1±0.9 mmHg
MPAP: Mean pulmonary artery pressure (adult mongrel dogs [1]; [6]): 17.7±5.9 mmHg
PCWP: Pulmonary capillary wedge pressure (adult mongrel dogs [1]; [6]): 9.4±4.7 mmHg
PVR: Pulmonary vascular resistance (adult mongrel dogs [1]; [6]): 251.20±97.14 dynes · sec/cm⁵
RPP: Rate pressure products (adult mongrel dogs [1]; [6]): 11462.0±2765.1 mmHg.beat/min
RVSWI: Right ventricle stroke work index (adult mongrel dogs [1]; [6]): 5.380±1.747 g.m/beat/m²
SAP: Systolic artery pressure (adult mongrel dogs [1]; [6]): 74.4±4.9 mmHg
SI: Stroke index (adult mongrel dogs [1]; [6]): 27.030 ±7.664 ml/HR/m²
SPAP: Systolic pulmonary artery pressure (adult mongrel dogs [1]; [6]): 25.5±7.3 mmHg
SV: Stroke volumes (adult mongrel dogs [1]; [6]): 18.5 ± 5.94 mL/beat
SVR: Systemic vascular resistance (adult mongrel dogs [1]; [6]): 1748.0±409.1 dynes · sec/cm⁵
HR: Heart rate (adult mongrel dogs [2]; [7]): 103 beats/min
MAP: Mean artery pressure (adult mongrel dogs [2]; [7]): 104.8 ±2.7 mmHg
HR: Heart rate (adult mongrel dogs [2]; [8]): 104±2.8 beat/min
MAP: Mean artery pressure (adult mongrel dogs [2]; [8]): 184±4.9 mmHg
